Test results published in patent US9011945B2, “Composition and method for neuroprotection against excitotoxic injury” (priority 2008, dated 2015).
Counter-ions that a name gives are not always drawn.

Experiments:
Na+, K+-ATPase = Na+, K+-ATPase activity of synaptosomes after excitotoxic injury (Example 1); format: in vivo, mice; settings: striatum synaptosomes 24 hr after excitotoxic injury
Protocol: (§1) Twenty-four hours after excitotoxic injury, mice were sacrificed by rapid decapitation under anesthesia. The lesioned (left) hemisphere was dissected into striatal and nonstriatal areas. The contralateral hemisphere was then dissected into the corresponding parts. Synaptosomes were prepared essentially as described previously (Andersen J M, Myhre O, Fonnum F. 2003. Discussion of the role of the extracellular signal-regulated kinase-phospholipase A2 pathway in production of reactive oxygen species in Alzheimer's disease. Neurochem Res 28: 319-326.). Briefly, different regions of the brain were removed and placed on ice. […]
(§2) ATPase activity was determined by measuring the amount of inorganic phosphate (Pi) released from the substrate ATP according to a previously described colorimetric method. The method permitted the quantification of Na^+, K^+-ATPase and Mg^2+-ATPase activity in the same sample. […] Optical density at 630 nm was determined by an ELISA reader (Dynatech MR-7000). The absorbance values obtained were converted to activity values by linear regression using a standard curve for sodium monobasic phosphate included in the assay at various concentrations. […] Protein concentration was determined colorimetrically with a commercial bicinchoninic acid kit (Pierce, Rockford, Ill.).

NO levels = NO levels of brain synaptosomes (Example 2); format: in vivo, mice; settings: FIG. 11E
[1] = test system: synaptosomal reactive oxygen species; assay: Synaptosomal reactive oxygen species formation, DCFH-DA (Example 1); format: in vivo, mice; settings: mouse excitotoxic injury
Protocol: as §1, with “ice. Specimens with the same areas and treatment conditions were pooled (n=2) and subjected to homogenization on ice in 10 volumes of 0.32M sucrose. Homogenates were centrifuged at 4° C. for 10 min at 600 g.” for “ice.”
Dichlorofluorescein-diacetate (DCFH-DA), a nonfluorescent cell-permeable compound, diffuses passively across cell membranes. […] Plates were incubated with shaking at 37° C. for 30 min before measurement of fluorescence using a Microplate Fluorometer (Labsystems, Helsinki, Finland) with an excitation wavelength of 488 nm, an emission wavelength of 525 nm, and a band width of 5 nm. […] Synaptosomal protein concentration was determined with Pierce BCA reagents according to instructions provided. […]

[2] = test system: intrasynaptosomal Ca2+ concentration; assay: Intrasynaptosomal Ca2+ concentration, Fluo-3/AM (Example 1); format: in vivo, mice; settings: striatum, 4 hr after excitotoxic injury; control group 145.62%±7.16%; n=10
Protocol: Intrasynaptosomal Ca^2+ concentration [Ca^2+]i was determined with the calcium-sensitive fluorochrome fluo-3-acetoxymethyl (Fluo-3/AM) in the presence of acetoxymethyl ester. First, 100 L of P2 synaptosomes was prepared as described above, and 2.5 mM Fluo-3/AM (Sigma, St. Louis, Mo.) was added to each well (final reaction volume of 250 L) and incubated at 37° C. for 30 min. Fluorescence was measured in a Microplate Fluorometer (Labsystems, Helsinki, Finland) with an excitation wavelength of 490 nm and an emission wavelength of 526 nm.

[3] = test system: mitochondrial succinate reductase; assay: Mitochondrial reductase activity, MTT test (Example 1); format: in vivo, mice; settings: striatum, 24 hr after excitotoxic injury; control group 74.52%±4.86%
Protocol: Twenty-four hours after excitotoxic injury, mice were sacrificed by rapid decapitation under anesthesia. The lesioned (left) hemisphere was dissected into striatal and nonstriatal areas. The contralateral hemisphere was then dissected into the corresponding parts. Synaptosomes were prepared essentially as described previously (Andersen J M, Myhre O, Fonnum F. 2003. Discussion of the role of the extracellular signal-regulated kinase-phospholipase A2 pathway in production of reactive oxygen species in Alzheimer's disease. Neurochem Res 28: 319-326.). Briefly, different regions of the brain were removed and placed on ice. Specimens with the same areas and treatment conditions were pooled (n=2) and subjected to homogenization on ice in 10 volumes of 0.32M sucrose. Homogenates were centrifuged at 4° C. for 10 min at 600 g. The supernatant was then diluted 1:1 with 1.3M sucrose to obtain a suspension with a final sucrose concentration of 0.8M. This suspension was subjected to centrifugation at 20,000 g for 30 min at 4° C., yielding a myelin-rich supernatant and a pellet (P2) consisting of synaptosomes free of myelin. […]
Mitochondrial metabolic function was assessed by the conversion of the dye methylthiazoletetrazolium (MTT) to purple formazan. […] The formation of formazan was quantitated spectrophotometrically at 570 nm using a Microplate Reader.

[4] = test system: NMDA-induced neurotoxicities; assay: Rotarod motor equilibrium performance with icv NMDA (Example 2)
Protocol: Their neuroprotective effects were evaluated after pretreatment for fourteen days or one day prior to the intracerebroventricular injection (icy) of 8 mM NMDA (3 μl).
One day before the experiment, mice were tested through ten consecutive sessions to stay on the rod and reach the cut off time of 180 s. One day after injection, mice were tested again. The retention time, defined as total time (sec) remaining on the rod, was recorded at each session.

[5] = test system: excitotoxic injury (NMDA injected into the left striatum); assay: Locomotor activity test before and after intrastriatal NMDA excitotoxic injury (Example 1); format: in vivo; settings: mice, oral gavage 2 days before intrastriatal NMDA; tested 24 hr after injury; n=8
Description: Memantine hydrochloride (>98.5% white crystalline powder) was supplied by Lotus Pharmaceutical Co., Ltd. (Taipei, Taiwan). Tea polyphenols were isolated from Longjing green tea with the following composition: epigallocatechin, 14.69%; catechin, 1.13%; epigallocatechin-3-gallate, 41.34%; epicatechin, 5.47%; gallocatechin-3-gallate, 5.16%; epicatechin-3 gallate, 12.54%; coffein, 0.95%; and other catechin derivatives, 18% (Yeh C W, Chen W J, Chiang C T, Lin-Shiau S Y, Lin J K. 2003. Suppression of fatty acid synthase in MCF-7 breast cancer cells by tea and tea polyphenols: a possible mechanism for their hypolipidemic effects. Pharmacogenomics J 3: 267-276.). Memantine (10 mg/kg/day), tea polyphenol (60 mg/kg/day), or a combination (memantine 5 mg/kg/day plus tea polyphenol 30 mg/kg/day) was dissolved in distilled water and administered by oral gavage for 2 consecutive days before causing excitotoxic injury. The experimental design had 5 groups: the sham operation group, the control group, the memantine group, the tea polyphenol group, and the tea polyphenol plus memantine group.
Weight and rectal temperature of each mouse were recorded before the surgical procedure. Anesthesia was induced with 5% chloral hydrate (400 mg/kg). […] Throughout the experimental procedure, mouse rectal temperature was monitored and maintained at 37.0° C.±0.5° C. […]

Mg2+-ATPase = Mg2+-ATPase activity of synaptosomes after excitotoxic injury (Example 1); format: in vivo, mice; settings: striatum synaptosomes 24 hr after excitotoxic injury
Protocol: as §1, §2

[6] = test system: NMDA-induced seizures (icv NMDA); assay: NMDA-induced seizure score (Example 2); format: in vivo, mice; settings: pretreatment before icv 8 mM NMDA (3 μl); control vehicle 90±10%
Description: In NMDA-treated mice, seizures developed through a sequence of paroxysmal scratching, hypermotility and aircling, tonic-clonic convulsions and, occasionally, death. The following semi-quantitative scale was used for the examination of excitotoxic severity: 0, no response; 1, excessive grooming plus paroxysmal scratching; 2, mild hypermotility; 3, extensive hypermotility and circling; 4, forepaw clonus plus tail hypertonus; 5, generalized tonic-clonic convulsions; 6, “status epilepticus” and death (Marganella et al. 2005. Comparative effects of levobupivacaine and racemic bupivacaine on excitotoxic neuronal death in culture and N-methyl-D-aspartate-induced seizures in mice. Eur. J. Pharmacol. 518: 111-115). The latency (in sec) for generalized (clonic or tonic-clonic convulsions) seizures was also determined.

[7] = test system: NMDA-decreased locomotor activities; assay: Open field locomotor activity test with icv NMDA (Example 2)
Protocol: In this example, the combination of TP with M (memantine) in three different dosage ratios of 6:1, 3:1, and 10:1 respectively; these are TPM6 (TP 30 mg/kg/day:M 5 mg/kg/day), TPM3 (TP 15 mg/kg/day:M 5 mg/kg/day) and TPM10 (TP 30 mg/kg/day:M 3 mg/kg/day), respectively.
A large colorless rectangular box with a metallic grid floor was used (70-cm wide, 90-cm long and 60-cm high). The photobeam activity monitors (TruScan coulbourn instruments) was used for measuring real-time X-Y activity track-type plots. Overall pulses were measured in an electromechanical counter as a gross measure of activity and recorded by a PC. Each mouse was allowed to move freely for 5 min but data were not scored, and then the number of squares crossed and the plots of tracking were counted during a period of 30 min for all experiments and quantification of data was by TruScan99 software.

[8] = test system: mitochondrial membrane potential (ΔΨm); assay: Mitochondrial membrane potential, DiOC6(3) (Example 1); format: in vivo, mice; settings: striatum, 24 hr after excitotoxic injury; control group 85.06%±2.58%
Protocol: as §1
Mitochondrial membrane potential (ΔΨm) was measured using the fluorescent dye 3,3-diexyloxacarbocyanine iodide, DiOC6(3) (Chen Y C, Lin-Shiau S Y, Lin J K, 1998b. Involvement of reactive oxygen species and caspase 3 activation in arsenite-induced apoptosis. J Cell Physiol 177: 324-333.). Synaptosomes were prepared as described above and diluted 1:40 in Tris buffer, followed by the addition of DiOC6(3) to a final concentration of 1.5 M. After 20 min of incubation at 37° C., fluorescence was measured in a Microplate Fluorometer (Labsystems, Helsinki, Finland) with an excitation wavelength of 484 nm and an emission wavelength of 501 nm.

[9] = test system: NMDA-induced neurotoxicities; assay: Elevated plus maze with icv NMDA (Example 2)
Protocol: In this example, the combination of TP with M (memantine) in three different dosage ratios of 6:1, 3:1, and 10:1 respectively; these are TPM6 (TP 30 mg/kg/day:M 5 mg/kg/day), TPM3 (TP 15 mg/kg/day:M 5 mg/kg/day) and TPM10 (TP 30 mg/kg/day:M 3 mg/kg/day), respectively. Their neuroprotective effects were evaluated after pretreatment for fourteen days or one day prior to the intracerebroventricular injection (icy) of 8 mM NMDA (3 μl).
For testing, mice were individually placed in the center of the maze facing a closed arm and allowed 5 min of free exploration. The number of entries into open arms, the number of entries into closed arms, and the total time spent in the open arms and total time spent in the closed arms were measured. Entry was defined as all four paws in the arms.

CC12CC3CC(C)(C1)CC(N)(C3)C2 [memantine, Memantine hydrochloride]
attenuation of decreased Na+, K+-ATPase activity (Na+, K+-ATPase): only minimally attenuated | NO levels of brain synaptosomes increased by NMDA (NO levels): decreased | effect on increased synaptosomal ROS production [1]: does not have any significant effects | intrasynaptosomal Ca2+ concentration [Ca2+]i [2]: 123.04%±6.70% | mitochondrial reductase activity (MTT test) [3]: 93.53%±8.53% | reversal of disturbance in rotarod motor equilibrium function induced by NMDA ([4]; drug one day before and consecutive 14 days following NMDA, FIG. 10D): reversed | motor equilibrium function, drug alone ([4]; prolonged use alone, FIG. 8D): reduced the motor equilibrium function | improvement of impaired locomotor activity after excitotoxic injury [5]: substantial but nonsignificant improvement | attenuation of decreased Mg2+-ATPase activity (Mg2+-ATPase): only minimally attenuated | attenuations of NMDA-induced seizure scores in percentage [6]: 60±10% | locomotor activities in the open field, drug alone ([7]; consecutive 14 days, before NMDA, FIG. 7): increased locomotor activities | reversal of decreased locomotor activities induced by NMDA ([7]; drug one day before and consecutive 14 days following NMDA, FIG. 10A): partially reversed | reversal of decrease in jump activity induced by NMDA ([7]; drug one day before and consecutive 14 days following NMDA, FIG. 10B): partially reversed | order of neuroprotective potencies against NMDA-decreased locomotor activities ([7]; pretreatment 14 days, FIG. 8A): TPM10>TPM6>TPM3>M | order of neuroprotective potencies against the decreased jump exploratory effect of NMDA ([7]; pretreatment 14 days, FIG. 8B): M>TPM6>TPM3>TPM10 | NMDA-decreased locomotor activities, prevention by pretreatment ([7]; pretreatment 14 days, icv 3 μl of 8 mM NMDA): prevented | decrease in jump activity, drug alone ([7]; pretreatment alone for consecutive 14 days, FIG. 8B): TPM6>M>TPM10 | mitochondrial membrane potential (ΔΨm) [8]: 94.23%±4.19% | attenuation of increased retention time in the opened plus maze by NMDA ([9]; drug one day before and consecutive 14 days following NMDA, FIG. 10C): followed in order by TPM6, TPM10 and then M | retention time in the open field of elevated plus maze, drug alone ([9]; prolonged use alone, FIG. 8C): prominently increased retention time
